Measured values taken from patent US20220119511A1, “COMPOSITIONS AND METHODS FOR TREATMENT OF DIABETES, OBESITY, HYPER-CHOLESTEROLEMIA, AND ATHEROSCLEROSIS BY INHIBITION OF SAM68” (The UAB Research Foundation, priority 2020, published 2022).
Residues, ends and D or L forms follow the SMILES beside them. *: point of attachment. Cbz = O=C(OCc1ccccc1)*

T1: CRTC2 (CREB-regulated transcriptional coactivator 2), endogenous, in WT mouse primary hepatocytes (mouse, UniProt Q3U182 2-692)
T1 construct: Endogenous protein immunoprecipitated with the CRTC2 antibody (sc-271912); also called endogenous CRTC2
T1 sequence (looked up): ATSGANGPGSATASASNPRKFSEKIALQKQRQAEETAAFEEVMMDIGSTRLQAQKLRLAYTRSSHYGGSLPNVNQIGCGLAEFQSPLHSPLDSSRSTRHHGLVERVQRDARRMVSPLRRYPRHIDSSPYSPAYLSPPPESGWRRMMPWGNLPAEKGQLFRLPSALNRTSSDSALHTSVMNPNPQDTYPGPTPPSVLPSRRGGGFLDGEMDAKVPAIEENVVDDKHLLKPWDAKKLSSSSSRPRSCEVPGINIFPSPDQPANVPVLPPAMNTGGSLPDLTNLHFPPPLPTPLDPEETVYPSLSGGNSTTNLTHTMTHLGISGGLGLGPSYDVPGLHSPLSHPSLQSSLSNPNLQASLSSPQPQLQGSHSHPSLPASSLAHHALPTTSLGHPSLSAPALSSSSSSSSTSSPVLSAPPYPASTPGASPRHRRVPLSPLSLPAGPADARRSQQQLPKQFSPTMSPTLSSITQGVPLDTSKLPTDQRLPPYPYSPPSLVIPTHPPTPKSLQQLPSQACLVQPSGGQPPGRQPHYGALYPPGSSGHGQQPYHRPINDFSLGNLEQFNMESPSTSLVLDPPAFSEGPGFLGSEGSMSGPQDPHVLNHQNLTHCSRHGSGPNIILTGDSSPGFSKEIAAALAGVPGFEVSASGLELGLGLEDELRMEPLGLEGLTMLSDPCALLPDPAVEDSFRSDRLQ

B1: Sam68 (Src-associated-in-mitosis-of-68kDa), endogenous, in WT mouse primary hepatocytes (other, UniProt Q60749 1-443, looked up)
chain: MQRRDDPASRLTRSSGRSCSKDPSGAHPSVRLTPSRPSPLPHRPRGGGGGPRGGARASPATQPPPLLPPSTPGPDATVVGSAPTPLLPPSATAAVKMEPENKYLPELMAEKDSLDPSFTHAMQLLSVEIEKIQKGESKKDDEENYLDLFSHKNMKLKERVLIPVKQYPKFNFVGKILGPQGNTIKRLQEETGAKISVLGKGSMRDKAKEEELRKGGDPKYAHLNMDLHVFIEVFGPPCEAYALMAHAMEEVKKFLVPDMMDDICQEQFLELSYLNGVPEPSRGRGVSVRGRGAAPPPPPVPRGRGVGPPRGALVRGTPVRGSITRGATVTRGVPPPPTVRGAPTPRARTAGIQRIPLPPTPAPETYEDYGYDDTYAEQSYEGYEGYYSQSQGESEYYDYGHGELQDSYEAYGQDDWNGTRPSLKAPPARPVKGAYREHPYGRY
notes: Endogenous protein co-immunoprecipitated from mouse primary hepatocytes; also called KHDRBS1

Key:
CRTC2 = CRTC2 protein levels in primary hepatocytes treated with proteasome or autophagy inhibitors (Western blot); type: cell-based, mouse; details: up to 16 h (MG132 20 μM, BZM 100 nM) or up to 8 h (bafilomycin 100 nM)
Description: FIGS. 7A-7J show Sam68 binds CRTC2 and inhibits CRTC2 ubiquitination and proteosomal degradation. In FIG. 7A, WT and Sam68^−/− mice were treated with glucagon (30 μg/kg) or PBS for 10 min; then, nuclear and cytoplasmic proteins were isolated from the liver tissue, and Sam68 protein expression was evaluated via Western blot. In FIG. 7B, CRTC2 was immunoprecipitated from WT and Sam68^−/− primary hepatocytes, and then CRTC2, Sam68, and CREB protein was detected in the precipitates via immunoblot. In FIG. 7C, 293T cells were co-transfected with plasmids coding for HA-tagged Sam68 and Flag-tagged CRTC2; 48 h later, CRTC2 was immunoprecipitated from the cells with anti-Flag, and Sam68 was detected in the precipitates by immunoblotting with anti-HA. In FIG. 7D, 293T cells were co-transfected with plasmids coding for Flag-tagged CRTC2 and HA-tagged WT Sam68 or HA-tagged mutations of Sam68 lacking the N-terminal domain (ΔN), the CK domain (ΔCK), proline motifs 3 and 4 (ΔP3-P4), or the C-terminal domain (ΔC); 48 h later, Sam68 and the Sam68 mutants were immunoprecipitated with anti-HA, and CRTC2 was detected in the precipitates by immunoblotting with anti-Flag. […] P62/SQSTM1 and LC3BI/II protein levels were also evaluated to indicate autophagic activity. […]

[1] = target: T1, CRTC2 (CREB-regulated transcriptional …); assay: co-IP from mouse primary hepatocytes (FIG. 7B)
Description: In FIG. 7A, WT and Sam68^{-/-} mice were treated with glucagon (30 μg/kg) or PBS for 10 min; then, nuclear and cytoplasmic proteins were isolated from the liver tissue, and Sam68 protein expression was evaluated via Western blot. In FIG. 7B, CRTC2 was immunoprecipitated from WT and Sam68^{-/-} primary hepatocytes, and then CRTC2, Sam68, and CREB protein was detected in the precipitates via immunoblot. […] In FIG. 7E, WT and Sam68^{-/-} primary hepatocytes were treated with cycloheximide (100 μM) for 0-8 h to block new protein synthesis; then, CRTC2 protein levels were evaluated by Western blot, quantified via Image J software, normalized to β-actin levels, and reported as the proportion of the amount present at 0 h. WT and Sam68^{-/-} primary hepatocytes were treated with cycloheximide and (FIG. 7E) MG132 (20 μM), (FIG. 7F) BZM (100 nM), or (FIG. 7G) bafilomycin (100 nM) for 0-16 (MG132, BZM) or 0-8 (bafilomycin) and CRTC2 protein levels were evaluated by Western blot, quantified via Image J software, normalized to β-actin levels, and reported as the proportion of the amount present in WT cells at 0 h. P62/SQSTM1 and LC3BI/II protein levels were also evaluated to indicate autophagic activity. […]

Row | Molecule | CRTC2 protein levels in Sam68−/− hepatocytes during treatment (CRTC2) | binding result [1]
1 | CC(C)C[C@@H](C=O)NC(=O)[C@H](CC(C)C)NC(=O)[C@H](CC(C)C)NC(=O)OCc1ccccc1 [MG132] (Cbz-Leu-Leu-Leu-aldehyde) | approximately doubled | –
2 | bafilomycin | unchanged | –
3 | B1 | – | binds
